According to the NIST ThermoML archive (doi:10.1021/je300280s):
Values joined by “and” are separate entries in the source; they are usually repeats but may differ in a detail not shown here. Identical values can stand only once. Numbers after ± are expanded uncertainties.

Columns and labels:
[1] = 101.33 kPa, Liquid, Vibrating tube method
[2] = xn = mol fraction of the nth substance listed; details: 101.3 kPa, Liquid, Vibrating tube method
[3] = excess molar enthalpy (molar enthalpy of mixing); xn = mol fraction of the nth substance listed; details: 101.3 kPa, Liquid, Flow calorimetry

For `CC(=O)C(C)=O` [2,3-butanedione], the mass density ([1]; 288.15 K) was 998.09 ± 0.27 kg/m3, the mass density ([1]; 293.15 K) was 991.78 ± 0.27 kg/m3 and the mass density ([1]; 298.15 K) was 985.5 ± 0.27 kg/m3. The mass density ([1]; 303.15 K) was 979.18 ± 0.27 kg/m3, the mass density ([1]; 308.15 K) was 972.83 ± 0.27 kg/m3 and the mass density ([1]; 313.15 K) was 966.48 ± 0.27 kg/m3. The mass density ([1]; 318.15 K) was 960.08 ± 0.27 kg/m3.

`CC/C=C\CCO` [(Z)-3-hexen-1-ol] gave a mass density ([1]; 288.15 K) of 856.22 ± 0.68 kg/m3, a mass density ([1]; 293.15 K) of 852.44 ± 0.68 kg/m3 and a mass density ([1]; 298.15 K) of 848.64 ± 0.67 kg/m3. For the same molecule, the mass density ([1]; 308.15 K) was 840.99 ± 0.67 kg/m3 and the mass density ([1]; 318.15 K) was 833.27 ± 0.66 kg/m3.

Molecule `CC/C=C\CCO` [(Z)-3-hexen-1-ol] + O has a mass density ([2]; 288.15 K, x1 = 0.000611) of 998.763 ± 0.033 kg/m3, a mass density ([2]; 288.15 K, x1 = 0.000916) of 998.596 ± 0.033 kg/m3 and a mass density ([2]; 288.15 K, x1 = 0.001221) of 998.432 ± 0.033 kg/m3. The mass density ([2]; 288.15 K, x1 = 0.001526) was 998.27 ± 0.033 kg/m3, the mass density ([2]; 288.15 K, x1 = 0.001831) was 998.106 ± 0.033 kg/m3 and the mass density ([2]; 288.15 K, x1 = 0.002135) was 997.95 ± 0.033 kg/m3. It also gave a mass density ([2]; 298.15 K, x1 = 0.00061) of 996.68 ± 0.034 kg/m3, a mass density ([2]; 298.15 K, x1 = 0.000915) of 996.493 ± 0.034 kg/m3 and a mass density ([2]; 298.15 K, x1 = 0.00122) of 996.319 ± 0.034 kg/m3. The mass density ([2]; 298.15 K, x1 = 0.001524) was 996.139 ± 0.035 kg/m3, the mass density ([2]; 298.15 K, x1 = 0.001828) was 995.963 ± 0.035 kg/m3 and the mass density ([2]; 298.15 K, x1 = 0.002132) was 995.788 ± 0.036 kg/m3. The mass density ([2]; 308.15 K, x1 = 0.000306) was 993.834 ± 0.036 kg/m3, the mass density ([2]; 308.15 K, x1 = 0.000611) was 993.642 ± 0.037 kg/m3 and the mass density ([2]; 308.15 K, x1 = 0.000612) was 993.637 ± 0.037 kg/m3. It also gave a mass density ([2]; 308.15 K, x1 = 0.000916) of 993.442 ± 0.13 kg/m3, a mass density ([2]; 308.15 K, x1 = 0.000918) of 993.441 ± 0.13 kg/m3 and a mass density ([2]; 308.15 K, x1 = 0.001221) of 993.253 ± 0.12 kg/m3. The mass density ([2]; 308.15 K, x1 = 0.001224) was 993.253 ± 0.096 kg/m3, the mass density ([2]; 308.15 K, x1 = 0.001526) was 993.064 ± 0.15 kg/m3 and the mass density ([2]; 308.15 K, x1 = 0.001529) was 993.059 ± 0.14 kg/m3. It also gave a mass density ([2]; 308.15 K, x1 = 0.001831) of 992.912 ± 0.14 kg/m3, a mass density ([2]; 308.15 K, x1 = 0.001835) of 992.883 ± 0.13 kg/m3 and a mass density ([2]; 318.15 K, x1 = 0.000611) of 989.794 ± 0.039 kg/m3. For the same molecule, the mass density ([2]; 318.15 K, x1 = 0.000612) was 989.796 ± 0.039 kg/m3, the mass density ([2]; 318.15 K, x1 = 0.000917) was 989.578 ± 0.039 kg/m3 and 989.591 ± 0.039 kg/m3 and the mass density ([2]; 318.15 K, x1 = 0.001222) was 989.38 ± 0.04 kg/m3. The mass density ([2]; 318.15 K, x1 = 0.001223) was 989.388 ± 0.04 kg/m3, the mass density ([2]; 318.15 K, x1 = 0.001527) was 989.183 ± 0.04 kg/m3 and the mass density ([2]; 318.15 K, x1 = 0.001528) was 989.184 ± 0.04 kg/m3. The mass density ([2]; 318.15 K, x1 = 0.001832) was 988.988 ± 0.04 kg/m3, the mass density ([2]; 318.15 K, x1 = 0.001833) was 988.984 ± 0.04 kg/m3 and the mass density ([2]; 318.15 K, x1 = 0.002137) was 988.803 ± 0.04 kg/m3 and 988.815 ± 0.04 kg/m3. The excess molar enthalpy ([3]; 288.15 K, x1 = 0.000611) was -0.00142 ± 0.000196 kcal/mol, the excess molar enthalpy ([3]; 288.15 K, x1 = 0.000916) was -0.0021 ± 0.000201 kcal/mol and the excess molar enthalpy ([3]; 288.15 K, x1 = 0.001221) was -0.00278 ± 0.000206 kcal/mol. It also gave an excess molar enthalpy ([3]; 288.15 K, x1 = 0.001526) of -0.00344 ± 0.00022 kcal/mol, an excess molar enthalpy ([3]; 288.15 K, x1 = 0.001831) of -0.0041 ± 0.000234 kcal/mol and an excess molar enthalpy ([3]; 288.15 K, x1 = 0.002135) of -0.00473 ± 0.000239 kcal/mol. The excess molar enthalpy ([3]; 298.15 K, x1 = 0.00061) was -0.000963 ± 0.000194 kcal/mol, the excess molar enthalpy ([3]; 298.15 K, x1 = 0.000915) was -0.00143 ± 0.000196 kcal/mol and the excess molar enthalpy ([3]; 298.15 K, x1 = 0.00122) was -0.00187 ± 0.000201 kcal/mol. The excess molar enthalpy ([3]; 298.15 K, x1 = 0.001524) was -0.00231 ± 0.000203 kcal/mol, the excess molar enthalpy ([3]; 298.15 K, x1 = 0.001828) was -0.00275 ± 0.000206 kcal/mol and the excess molar enthalpy ([3]; 298.15 K, x1 = 0.002132) was -0.00316 ± 0.000213 kcal/mol. It also gave an excess molar enthalpy ([3]; 308.15 K, x1 = 0.000306) of -0.00028 ± 0.000186 kcal/mol, an excess molar enthalpy ([3]; 308.15 K, x1 = 0.000611) of -0.000528 ± 0.000189 kcal/mol and an excess molar enthalpy ([3]; 308.15 K, x1 = 0.000612) of -0.000533 ± 0.000189 kcal/mol. For the same molecule, the excess molar enthalpy ([3]; 308.15 K, x1 = 0.000916) was -0.000786 ± 0.000191 kcal/mol, the excess molar enthalpy ([3]; 308.15 K, x1 = 0.000918) was -0.000789 ± 0.000191 kcal/mol and the excess molar enthalpy ([3]; 308.15 K, x1 = 0.001221) was -0.00102 ± 0.000194 kcal/mol. The excess molar enthalpy ([3]; 308.15 K, x1 = 0.001224) was -0.00102 ± 0.000194 kcal/mol, the excess molar enthalpy ([3]; 308.15 K, x1 = 0.001526) was -0.00125 ± 0.000196 kcal/mol and the excess molar enthalpy ([3]; 308.15 K, x1 = 0.001529) was -0.00126 ± 0.000196 kcal/mol. For the same molecule, the excess molar enthalpy ([3]; 308.15 K, x1 = 0.001835) was -0.00146 ± 0.000196 kcal/mol, the excess molar enthalpy ([3]; 318.15 K, x1 = 0.000611) was -0.000141 ± 0.000186 kcal/mol and the excess molar enthalpy ([3]; 318.15 K, x1 = 0.000612) was -0.000139 ± 0.000186 kcal/mol. For the same molecule, the excess molar enthalpy ([3]; 318.15 K, x1 = 0.000917) was -0.000198 kcal/mol and -0.000194 kcal/mol, the excess molar enthalpy ([3]; 318.15 K, x1 = 0.001222) was -0.000241 ± 0.000186 kcal/mol and the excess molar enthalpy ([3]; 318.15 K, x1 = 0.001223) was -0.000239 ± 0.000186 kcal/mol. The excess molar enthalpy ([3]; 318.15 K, x1 = 0.001527) was -0.00028 ± 0.000186 kcal/mol, the excess molar enthalpy ([3]; 318.15 K, x1 = 0.001528) was -0.000284 ± 0.000186 kcal/mol and the excess molar enthalpy ([3]; 318.15 K, x1 = 0.001832) was -0.000308 ± 0.000186 kcal/mol. It also gave an excess molar enthalpy ([3]; 318.15 K, x1 = 0.001833) of -0.000311 ± 0.000186 kcal/mol.

Work on `CCCC(=O)OC` [methyl butanoate] yielded a mass density ([1]; 288.15 K) of 903.34 ± 0.27 kg/m3, a mass density ([1]; 293.15 K) of 897.88 ± 0.27 kg/m3 and a mass density ([1]; 298.15 K) of 892.38 ± 0.27 kg/m3. It also gave a mass density ([1]; 303.15 K) of 886.86 ± 0.27 kg/m3, a mass density ([1]; 308.15 K) of 881.3 ± 0.27 kg/m3 and a mass density ([1]; 313.15 K) of 875.74 ± 0.27 kg/m3. It also gave a mass density ([1]; 318.15 K) of 870.14 ± 0.27 kg/m3.

With `CCCOC(C)=O` [propyl ethanoate] the mass density ([1]; 288.15 K) was 893.2 ± 0.2 kg/m3, the mass density ([1]; 298.15 K) was 882.05 ± 0.2 kg/m3 and the mass density ([1]; 308.15 K) was 870.87 ± 0.2 kg/m3. For the same molecule, the mass density ([1]; 318.15 K) was 859.52 ± 0.2 kg/m3.
